ChEMBL document CHEMBL2331104, “Characterization of human carbonic anhydrase XII stability and inhibitor binding” (Bioorg Med Chem, 2013)
Calls of active or inactive are those of the source. The calls are words filed in the database; no cut-off is given here.

Columns and labels:
Carbonic anhydrase 12 [1] = target: T1, Carbonic anhydrase 12 (Homo sapiens, UniProt O43570); experiment: Binding affinity to human recombinant carbonic anhydrase 12 expressed in Escherichia coli Rosetta (DE3) assessed as protein stability at pH 6 by fluorescent thermal shift assay
T1 sequence (O43570 whole entry): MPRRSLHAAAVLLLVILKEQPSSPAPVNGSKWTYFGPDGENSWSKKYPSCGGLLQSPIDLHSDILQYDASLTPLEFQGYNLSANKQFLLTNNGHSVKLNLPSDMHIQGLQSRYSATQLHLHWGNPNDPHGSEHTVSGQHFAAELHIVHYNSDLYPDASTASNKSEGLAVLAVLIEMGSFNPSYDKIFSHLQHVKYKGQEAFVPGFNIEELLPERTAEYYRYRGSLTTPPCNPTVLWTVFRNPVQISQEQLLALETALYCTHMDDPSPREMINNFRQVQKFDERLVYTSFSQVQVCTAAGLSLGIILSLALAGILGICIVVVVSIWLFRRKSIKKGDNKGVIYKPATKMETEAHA

Carbonic anhydrase 12 [2] = target: T1, Carbonic anhydrase 12; experiment: Binding affinity to human recombinant carbonic anhydrase 12 expressed in Escherichia coli Rosetta (DE3) assessed as protein stability at pH 5 by fluorescent thermal shift assay
Carbonic anhydrase 12 [3] = target: T1, Carbonic anhydrase 12; experiment: Binding affinity to human recombinant carbonic anhydrase 12 expressed in Escherichia coli Rosetta (DE3) assessed as protein stability at pH 10 by fluorescent thermal shift assay
Carbonic anhydrase 12 [4] = target: T1, Carbonic anhydrase 12; experiment: Inhibition of human carbonic anhydrase 12

Structure (SMILES) | Activity (Carbonic anhydrase 12 [1]) | Activity (Carbonic anhydrase 12 [2]) | Activity (Carbonic anhydrase 12 [3]) | Ki (Carbonic anhydrase 12 [4]) [nM]
CCOc1ccc2nc(S(N)(=O)=O)sc2c1 | Active | inactive | inactive | –
CCc1ccc2ccc(=O)oc2c1C(C)=O | – | – | – | 1
NS(=O)(=O)C(F)(F)F | Active | inactive | inactive | –
CCCc1ccc2ccc(=O)oc2c1C(C)=O | – | – | – | 0.98
